Data on 20 compounds can be found in PubChem BioAssay (NCI).

Some test systems named below: A498 renal; CAKI-1 renal; CCRF-CEM leukemia; DU-145 prostate; KM12 colon; MOLT-4 leukemia; NCI-H23 lung; NCI/ADR-RES ovarian; SF-268 CNS; UACC-257 melanoma.
What all share (experiment): NCI anticancer screen, dose series, 48 h

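Results reflect a 48-hour exposure of cells in 96-well plates to compound at five concentrations. TGI denotes the concentration required for complete inhibition of growth.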

Consider `COc1cccc(C2CC(=O)c3cccn32)c1` (stereo not given), for which the TGI with A498 renal, in the experiment with CAKI-1 renal, in the experiment on CCRF-CEM leukemia, in the experiment on DU-145 prostate, in the experiment with KM12 colon and in the experiment with MOLT-4 leukemia was > 100 µM throughout. Further, the TGI with NCI-H23 lung, in the experiment with NCI/ADR-RES ovarian, in the experiment on SF-268 CNS and in the experiment on UACC-257 melanoma was > 100 µM each time.
Consider `CCCC(=O)OC1CC(n2cc(F)c(=O)[nH]c2=O)OC1CO` (stereo not given), for which the TGI with A498 renal was > 10 µM; in the experiment on CAKI-1 renal, > 10 µM; with CCRF-CEM leukemia, > 10 µM; in the experiment on DU-145 prostate, > 3.23 µM; in the experiment on KM12 colon it was > 10 µM; in the experiment with MOLT-4 leukemia, > 10 µM. The TGI was 1.11 µM in the experiment on NCI-H23 lung, > 10 µM in the experiment with NCI/ADR-RES ovarian, > 10 µM in the experiment on SF-268 CNS and > 10 µM in the experiment on UACC-257 melanoma.
Regarding `CN(C)c1ccc(/C=C2\C[C@H]3[C@@H]4CCc5cc(O)ccc5[C@H]4CC[C@]3(C)C2=O)cc1`, the TGI in the experiment with A498 renal, in the experiment on CAKI-1 renal, with CCRF-CEM leukemia, in the experiment with DU-145 prostate, in the experiment on KM12 colon and in the experiment with MOLT-4 leukemia was > 100 µM throughout. In addition, the TGI in the experiment with NCI-H23 lung was > 100 µM; with NCI/ADR-RES ovarian it was > 100 µM; in the experiment on SF-268 CNS, 61 µM; in the experiment on UACC-257 melanoma, > 100 µM.
On to `Cc1nnc2sc(-c3ccc([N+](=O)[O-])o3)nn12`, for which the TGI with A498 renal was > 100 µM; in the experiment on CAKI-1 renal, 22.3 µM; in the experiment with CCRF-CEM leukemia it was > 100 µM; in the experiment with DU-145 prostate, 29.8 µM; with KM12 colon, 33.5 µM; in the experiment on MOLT-4 leukemia it was 13.5 µM. For the same compound, the TGI was 34.4 µM in the experiment with NCI-H23 lung, 39 µM in the experiment with NCI/ADR-RES ovarian, 27 µM in the experiment on SF-268 CNS and 26.8 µM with UACC-257 melanoma.
`COC(=O)C(C(=O)OC)C1CC(=O)c2c(Br)sc(Br)c21` (stereo not given): the TGI in the experiment with A498 renal was > 100 µM; in the experiment on CAKI-1 renal, 21.1 µM; in the experiment with CCRF-CEM leukemia, 15.4 µM; in the experiment on DU-145 prostate it was 34.8 µM; in the experiment with KM12 colon it was > 100 µM; in the experiment with MOLT-4 leukemia, 18.7 µM. The TGI in the experiment on NCI-H23 lung came to 25.4 µM; with NCI/ADR-RES ovarian it was 37.1 µM; in the experiment with SF-268 CNS it was 52.8 µM; in the experiment with UACC-257 melanoma, 76.8 µM.
For `O=S(=O)(O)c1ccc(Nc2ccnc3cc(Cl)ccc23)cc1`, the TGI in the experiment on A498 renal, with CAKI-1 renal, with CCRF-CEM leukemia, with DU-145 prostate, in the experiment with KM12 colon and with MOLT-4 leukemia was > 100 µM in each case. Besides, the TGI in the experiment with NCI-H23 lung, in the experiment with NCI/ADR-RES ovarian, in the experiment with SF-268 CNS and in the experiment on UACC-257 melanoma was > 100 µM throughout.
As for `Cc1nnc(CC#N)n1NC(=O)CC#N`, the TGI in the experiment on A498 renal, in the experiment with CAKI-1 renal, in the experiment with CCRF-CEM leukemia, in the experiment with DU-145 prostate, with KM12 colon and in the experiment on MOLT-4 leukemia was > 100 µM each time. The TGI in the experiment with NCI-H23 lung, in the experiment with NCI/ADR-RES ovarian, with SF-268 CNS and with UACC-257 melanoma was > 100 µM in each case.
Consider `CN(C)C=Nc1nncc2n[nH]nc12`, for which the TGI in the experiment on A498 renal, in the experiment on CAKI-1 renal, in the experiment on CCRF-CEM leukemia, with DU-145 prostate, in the experiment with KM12 colon and in the experiment on MOLT-4 leukemia was > 100 µM in each case. For the same compound, the TGI with NCI-H23 lung, in the experiment on NCI/ADR-RES ovarian, in the experiment on SF-268 CNS and in the experiment on UACC-257 melanoma was > 100 µM throughout.
As to `COC(=O)c1c(C#C[Si](C)(C)C)c(C#C[Si](C)(C)C)c(C#C[Si](C)(C)C)c(C#C[Si](C)(C)C)c1C(=O)OC`, the TGI with A498 renal, with CAKI-1 renal, in the experiment with CCRF-CEM leukemia, with DU-145 prostate, with KM12 colon and with MOLT-4 leukemia was > 100 µM in each case. The TGI in the experiment on NCI-H23 lung, with NCI/ADR-RES ovarian, in the experiment with SF-268 CNS and in the experiment with UACC-257 melanoma was > 100 µM each time.
In the case of `COC(=O)C[C@H](CCSC)NC(=O)C[C@H](CCSC)NC(=O)C[C@H](CCSC)NC(=O)OC(C)(C)C`, the TGI was 46.4 µM in the experiment on A498 renal; > 100 µM with CAKI-1 renal; > 100 µM in the experiment with CCRF-CEM leukemia; > 100 µM with DU-145 prostate; > 100 µM in the experiment on KM12 colon; > 100 µM in the experiment on MOLT-4 leukemia. Moreover, the TGI with NCI-H23 lung is > 100 µM; in the experiment with NCI/ADR-RES ovarian it was > 100 µM; in the experiment on SF-268 CNS, 59.2 µM; in the experiment on UACC-257 melanoma, > 100 µM.
Turning to `Nc1ccc(-c2nc3ccccc3s2)cc1`, the TGI with A498 renal is 65 µM; in the experiment with CAKI-1 renal, > 67.8 µM; in the experiment on CCRF-CEM leukemia it was 54.4 µM; in the experiment with DU-145 prostate, 31.6 µM; in the experiment on KM12 colon, 47.6 µM; in the experiment on MOLT-4 leukemia, 70.3 µM. Besides, the TGI in the experiment with NCI-H23 lung amounted to 43.1 µM; in the experiment on NCI/ADR-RES ovarian it was 56.4 µM; with SF-268 CNS, 31.4 µM; in the experiment on UACC-257 melanoma, 49.7 µM.
As to `CC1(O)C(=O)OC2CC([C@]3(O)CCC4[C@@H]5C[C@H]6O[C@]67[C@@H](O)C=CC(=O)[C@]7(C)C5CC[C@@]43C)C1(C)C2` (stereo not given in full), the TGI was > 100 µM in the experiment on A498 renal; 25.4 µM in the experiment with CAKI-1 renal; 9.54 µM in the experiment with CCRF-CEM leukemia; 75.2 µM in the experiment on DU-145 prostate; > 64.1 µM in the experiment with KM12 colon; 31.6 µM in the experiment with MOLT-4 leukemia. Further, the TGI in the experiment with NCI-H23 lung is 25.1 µM; in the experiment on NCI/ADR-RES ovarian it was > 100 µM; in the experiment on SF-268 CNS, > 92 µM; with UACC-257 melanoma it was 26.6 µM.
Turning to `CCOC(=O)c1cc(-c2ccn(C(C)=O)c2)c(-c2cc(C)co2)[nH]1`, the TGI with A498 renal, in the experiment on CAKI-1 renal, with CCRF-CEM leukemia, in the experiment with DU-145 prostate, with KM12 colon and in the experiment on MOLT-4 leukemia was > 100 µM throughout. Further, the TGI in the experiment with NCI-H23 lung, in the experiment with NCI/ADR-RES ovarian, with SF-268 CNS and with UACC-257 melanoma was > 100 µM in each case.
On to `CSc1ccccc1P(CCP(c1ccccc1SC)c1ccccc1SC)c1ccccc1SC`, for which the TGI in the experiment with A498 renal is > 81.7 µM; with CAKI-1 renal, > 100 µM; with CCRF-CEM leukemia, 29.6 µM; with DU-145 prostate, > 100 µM; in the experiment on KM12 colon it was > 100 µM; with MOLT-4 leukemia it was > 100 µM. The TGI was > 38.1 µM with NCI-H23 lung, > 100 µM in the experiment on NCI/ADR-RES ovarian, > 100 µM in the experiment with SF-268 CNS and > 89.5 µM in the experiment on UACC-257 melanoma.
In the case of `C=CCn1c(=O)c2ccccc2[n+]2c(-c3cccc([N+](=O)[O-])c3)csc12`, the TGI in the experiment on A498 renal, in the experiment on CAKI-1 renal, in the experiment on CCRF-CEM leukemia, in the experiment with DU-145 prostate, with KM12 colon and in the experiment on MOLT-4 leukemia was > 100 µM in each case. For the same compound, the TGI was > 100 µM in the experiment with NCI-H23 lung, 68.2 µM with NCI/ADR-RES ovarian, > 100 µM with SF-268 CNS and > 100 µM in the experiment on UACC-257 melanoma.
Regarding `C[C@@H]1OCC(O)C([C@H]2OC(c3ccccc3)=N[C@H]2CO)O1` (stereo not given in full), the TGI in the experiment on A498 renal, in the experiment with CAKI-1 renal, in the experiment with CCRF-CEM leukemia, in the experiment on DU-145 prostate, in the experiment on KM12 colon and in the experiment with MOLT-4 leukemia was > 100 µM each time. In addition, the TGI with NCI-H23 lung, in the experiment on NCI/ADR-RES ovarian, with SF-268 CNS and in the experiment on UACC-257 melanoma was > 100 µM each time.
`OC(O)(C(F)(F)F)C(F)(F)F`: the TGI in the experiment with A498 renal, with CAKI-1 renal, with CCRF-CEM leukemia, in the experiment with DU-145 prostate, in the experiment on KM12 colon and in the experiment on MOLT-4 leukemia was > 100 µM each time. In addition, the TGI in the experiment on NCI-H23 lung, with NCI/ADR-RES ovarian, with SF-268 CNS and with UACC-257 melanoma was > 100 µM throughout.
Turning to `C/C(=C\c1ccccc1)C(=O)NCc1ccc(C(=O)NCCc2c[nH]c3ccccc23)cc1`, the TGI in the experiment on A498 renal, in the experiment with CAKI-1 renal, with CCRF-CEM leukemia, in the experiment with DU-145 prostate, in the experiment with KM12 colon and in the experiment on MOLT-4 leukemia was > 100 µM each time. Also, the TGI in the experiment on NCI-H23 lung was > 100 µM; in the experiment on NCI/ADR-RES ovarian, > 100 µM; with SF-268 CNS, > 100 µM; with UACC-257 melanoma it was 78.2 µM.
For `c1ccc2c(c1)c1c3n2-c2cc(on2)C3CCC1` (stereo not given), the TGI in the experiment with A498 renal, in the experiment with CAKI-1 renal, with CCRF-CEM leukemia, with DU-145 prostate, in the experiment on KM12 colon and in the experiment on MOLT-4 leukemia was > 100 µM in each case. Moreover, the TGI with NCI-H23 lung, in the experiment with NCI/ADR-RES ovarian, in the experiment on SF-268 CNS and in the experiment on UACC-257 melanoma was > 100 µM throughout.
Consider `COC(=O)C1=C(C)NC2(C)OC(C)(O)C(C(C)=O)C12C(C)=O` (stereo not given), for which the TGI in the experiment with A498 renal, in the experiment with CAKI-1 renal, with CCRF-CEM leukemia, with DU-145 prostate, with KM12 colon and in the experiment with MOLT-4 leukemia was > 100 µM in each case. Further, the TGI in the experiment on NCI-H23 lung, with NCI/ADR-RES ovarian, in the experiment on SF-268 CNS and in the experiment on UACC-257 melanoma was > 100 µM each time.
